Structures can show the parent of a compound that is named as a salt. A value given as a limit tells only on which side of the number the result lay.

`CC(C)Cc1nn(C)c(=O)c2cc(Cc3cnc4ccccc4c3)sc12` (as salt: hydrochloride) [Example 44, 5-Methyl-7-(2-methylpropyl)-2-(3-quinolinylmethyl)thieno[2,3-d]pyridazin-4(5H)-one Hydrochloride]: the melting point (commonly the temperature of the solid-liquid transition) was > 230 °C (dec.).

Compound `CC(C)Cc1nn(C)c(=O)c2cc(Cc3ccccc3)sc12` [Example 15, 5-Methyl-7-(2-methylpropyl)-2-phenylmethylthieno[2,3-d]pyridazin-4(5H)-one] returned a melting point of 97 to 98 °C.

The compound `CC(C)Cc1nn(C)c(=O)c2cc(Cc3ccccc3C(F)(F)F)sc12` [Example 39, 2-(2-Trifluoromethylphenyl)methyl-5-methyl-7-(2-methylpropyl)thieno[2,3-d]pyridazin-4(5H)-one] showed a melting point of 112 to 114 °C.

Turning to `CC(C)Cc1nn(C)c(=O)c2cc(Cc3cccc(C#N)c3)oc12` [Example 38, 2-(3-Cyanophenyl)methyl-5-methyl-7-(2-methylpropyl)furo[2,3-d]pyridazin-4(5H)one], the melting point was in the range of 76 to 78 °C.

`CC(C)Cc1nn(C)c(=O)c2cc(C(=O)c3cccc4ccccc34)sc12` [Example 9, 5-Methyl-7-(2-methylpropyl)-2-(1-naphthalenylcarbonyl)thieno[2,3-d]pyridazin-4(5H)-one] returned a melting point of 121 °C.

Compound `CC(C)Cc1nn(C)c(=O)c2c(SCCCO)c(Cc3ccccc3)sc12` [Example 16, 3-[(3-Hydroxypropy)thio]-5-methyl-7-(2-methylpropyl)-2-phenylmethylthieno[2,3-d]pyridazin-4(5H)-one] showed a melting point of 60 to 65 °C.

In turn, `CC(C)Cc1nn(C)c(=O)c2c(S(=O)(=O)CCCO)c(Cc3cccc4ccccc34)sc12` [Example 13, 3-[(3-Hydroxypropyl)sulfonyl]-5-methyl-7-(2-methylpropyl)-2-(1-naphthalenylmethyl)thieno[2,3-d]pyridazin-4(5H)-one] yielded a melting point of 160 to 163 °C.

As for `CC(C)Cc1nn(C)c(=O)c2nn(Cc3cccc4ccccc34)cc12` [Example 33], the melting point is 163 to 164 °C.

As to `CC(C)Cc1nn(C)c(=O)c2c([S+]([O-])CCCO)c(Cc3cccc4ccccc34)sc12` (stereo not drawn) [Example 10, 3[(3-Hydroxypropyl)sulfinyl]-5-methyl-7-(2-methylpropyl)-2-(1-naphthalenylmethyl)thieno[2,3-d]pyridazin-4(5H)-one], the melting point was in the range of 60 to 65 °C.

As for `COc1cc(Cn2cc3c(CC(C)C)nn(C)c(=O)c3c2)cc(OC)c1OC` [Example 21, 2,6-Dihydro-2-methyl-4-(2-methylpropyl)-6-(3,4,5-trimethoxyphenyl)methyl-1H-pyrrolo[3,4-d]pyridazin-1-one], the melting point lay within 154.5 to 155 °C.

Regarding `CC(C)Cc1nn(C)c(=O)c2cc(C(O)c3cccc4ccccc34)oc12` (stereo not drawn) [Example 35, 2-[1-Hydroxy-1-(1-naphthalenyl)methyl]-5-methyl-7-(2-methylpropyl)furo[2,3-d]pyridazin-4(5H)one], the melting point fell in the range of 110 to 112 °C.

In turn, `CC(C)Cc1nn(C)c(=O)c2c(SCCCO)n(Cc3cccc4ccccc34)nc12` [Example 34, 2,5-Dihydro-3-[(3-hydoxypropyl)thio]-5-methyl-7-(2-methylpropyl)-2-(1-naphthalenylmethyl)-4H-pyrazolo[3,4-d]pyridazin-4-one] yielded a melting point of 141 to 142 °C.

Turning to `CC(C)Cc1nn(C)c(=O)c2cn(Cc3ccncc3)cc12` [Example 23, 2,6-Dihydro-2-methyl-4-(2-methylpropyl)-6-(4-pyridinyl)methyl-1H-pyrrolo[3,4-d]pyridazin-1-one], the melting point was 91 to 93 °C.

In turn, `CC(C)Cc1nn(C)c(=O)c2cn(Cc3cccc4ccccc34)cc12` [Example 1, 2,6-Dihydro-2-methyl-4-(2-methylpropyl)-6-(1-naphthalenylmethyl)-1H-pyrrolo[3,4-d]pyridazin-1-one] yielded a melting point of 110 to 112 °C.

The compound `CC(C)Cc1nn(C)c(=O)c2cn(Cc3cccc4ccccc34)nc12` [Example 32, 2,5-Dihydro-5-methyl-7-(2-methylpropyl)-2-(1-naphthalenylmethyl)-4H-pyrazolo[3,4-d]pyridazin-4-one] displayed a melting point of 166 to 167 °C.

Compound `CC(C)Cc1nn(C)c(=O)c2cc(Cc3cccc4ccccc34)oc12` [Example 36, 5-Methyl-7-(2-methylpropyl)-2-(1-naphthalenylmethyl)furo[2,3-d]pyridazin-4(5H)one] showed a melting point of 73 to 75 °C.

Compound `CC(C)Cc1nn(C)c(=O)c2cn(Cc3ccccc3)cc12` [Example 18, 2,6-Dihydro-2-methyl-4-(2-methylpropyl)-6-phenylmethyl-1H-pyrrolo[3,4-d]pyridazin-1-one] registered a melting point of 104 °C.

`CC(C)Cc1nn(C)c(=O)c2c(Sc3ccccn3)n(Cc3ccccc3)cc12` [Example 19, 2,6-Dihydro-2-methyl-4-(2-methylpropyl)-6-phenylmethyl-7-(2-pyridinylthio)-1H-pyrrolo[3,4-d]pyridazin-1-one]: the melting point was in the range of 131 to 132 °C.

As to `CC(C)Cc1nn(C)c(=O)c2c(SCCCC(=O)O)n(Cc3cccc4ccccc34)cc12` [Example 4, 4-{[2,6-Dihydro-2-methyl-4-(2-methylpropyl)-6-(1-naphthalenylmethyl)-1-oxo-1H-pyrrolo[3,4-d]pyridazin-7-yl]thio}butanoic Acid], the melting point came to 167 °C.

Turning to `CC(C)Cc1nn(C)c(=O)c2cc(C(O)c3cccnc3)sc12` (stereo not drawn) (as salt: hydrochloride) [Example 40, 2-[(1-Hydroxy-1-pyridin-3-yl)methyl]-5-methyl-7-(2-methylpropyl)thieno[2,3-d]pyridazin-4(5H)-one Hydrochloride], the melting point was in the range of 154 to 156 °C.

The compound `CC(C)Cc1nn(C)c(=O)c2cc(Cc3c(F)cccc3Cl)sc12` [Example 42, 2-(2-Chloro-6-fluorophenyl)methyl-5-methyl-7-(2-methylpropyl)thieno[2,3-d]pyridazin-4(5H)-one] came in with a melting point of 85 to 86 °C.

The compound `CC(C)Cc1nn(C)c(=O)c2cc(C(O)c3cccc(C#N)c3)oc12` (stereo not drawn) [Example 37, 2-[1-Hydroxy-1-(3-cyanophenyl)methyl]-5-methyl-7-(2-methylpropyl)furo[2,3-d]pyridazin4(5H)one] registered a melting point of 106 to 108 °C.

Compound `CC(C)Cc1nn(C)c(=O)c2c([S+]([O-])CCCO)n(Cc3cccc4ccccc34)cc12` (stereo not drawn) [Example 5 (A), 2,6-Dihydro-7-[(3-hydroxypropyl)sulfinyl]-2-methyl-4-(2-methylpropyl)-6-(1-naphthalenylmethyl)-1H-pyrrolo[3,4-d]pyridazin-1-one] displayed a melting point of 164 to 166 °C.

Compound `CC(C)Cc1nn(C)c(=O)c2c(S(=O)(=O)CCCO)c(Cc3ccccc3)sc12` [Example 17, 3-[(3-Hydroxypropyl)sulfonyl]-5-methyl-7-(2-methylpropyl)-2-phenylmethylthieno[2,3-d]pyridazin-4(5H)-one] had a melting point of 105 to 107 °C.

As for `COCCn1nc(CC(C)C)c2cn(Cc3cccc4ccccc34)cc2c1=O` [Example 2, 2,6-Dihydro-2-(2-methoxyethyl)-4-(2-methylpropyl)-6-(1-naphthalenylmethyl)-1H-pyrrolo[3,4-d]pyridazin-1-one], the melting point was 96 to 98 °C.

Consider `CC(C)Cc1nn(C)c(=O)c2cc(C(O)c3cccc4ccccc34)sc12` (stereo not drawn) [Example 6, 2-[1-Hydroxy-1-(1-naphthalenyl)methyl]-5-methyl-7-(2-methylpropyl)thieno[2,3-d]pyridazin-4(5H)-one], for which the melting point is 165 to 167 °C.

`CC(C)Cc1nn(C)c(=O)c2c(SCCCO)n(Cc3ccccc3)cc12` [Example 20, 2,6-Dihydro-7-[(3-hydroxypropyl)thio]-2-methyl-4-(2-methylpropyl)-6-phenylmethyl-1H-pyrrolo[3,4-d]pyridazin-1-one] came in with a melting point of 91 to 92 °C.

`CC(C)Nc1nn(C)c(=O)c2cn(Cc3cccc4ccccc34)cc12` [Example 22, 2,6-Dihydro-2-methyl-6-(1-naphthalenylmethyl)-4-(1-methylethyl)amino-1H-pyrrolo[3,4-d]pyridazin-1-one] showed a melting point of 221 to 222 °C.

The compound `CC(C)Cc1nn(C)c(=O)c2cc(Cc3cccnc3)sc12` [Example 41, 5Methyl-7-(2-methylpropyl)-2-(3-pyridinylmethyl)thieno[2,3-d]pyridazin-4(5H)-one] came in with a melting point of 118 to 119 °C.

For `CC(C)Cc1nn(C)c(=O)c2c(SCCCC(=O)O)c(Cc3cccc4ccccc34)sc12` [Example 11, 4-{[4,5-Dihydro-5-methyl-7-(2-methylpropyl)-2-(1-naphthalenylmethyl)-4-oxothieno[2,3-d]pyridazin-3-yl]thio}butanoic Acid], the melting point was in the range of 154 to 156 °C.

(Values after US6342601B1, “Compounds” (AstraZeneca AB, priority 1997, dated 2002).)
